Source: ChEMBL document CHEMBL5614426 (J Med Chem, 2024)
Values belong to the molecule of their own block, whether it stands above or below them.

Key:
[1] = molecular target: T1, Histone-lysine N-methyltransferase NSD2 (Homo sapiens, UniProt O96028); experiment: Inhibition of NSD2-SET domain (unknown origin)
T1 sequence (O96028 whole entry): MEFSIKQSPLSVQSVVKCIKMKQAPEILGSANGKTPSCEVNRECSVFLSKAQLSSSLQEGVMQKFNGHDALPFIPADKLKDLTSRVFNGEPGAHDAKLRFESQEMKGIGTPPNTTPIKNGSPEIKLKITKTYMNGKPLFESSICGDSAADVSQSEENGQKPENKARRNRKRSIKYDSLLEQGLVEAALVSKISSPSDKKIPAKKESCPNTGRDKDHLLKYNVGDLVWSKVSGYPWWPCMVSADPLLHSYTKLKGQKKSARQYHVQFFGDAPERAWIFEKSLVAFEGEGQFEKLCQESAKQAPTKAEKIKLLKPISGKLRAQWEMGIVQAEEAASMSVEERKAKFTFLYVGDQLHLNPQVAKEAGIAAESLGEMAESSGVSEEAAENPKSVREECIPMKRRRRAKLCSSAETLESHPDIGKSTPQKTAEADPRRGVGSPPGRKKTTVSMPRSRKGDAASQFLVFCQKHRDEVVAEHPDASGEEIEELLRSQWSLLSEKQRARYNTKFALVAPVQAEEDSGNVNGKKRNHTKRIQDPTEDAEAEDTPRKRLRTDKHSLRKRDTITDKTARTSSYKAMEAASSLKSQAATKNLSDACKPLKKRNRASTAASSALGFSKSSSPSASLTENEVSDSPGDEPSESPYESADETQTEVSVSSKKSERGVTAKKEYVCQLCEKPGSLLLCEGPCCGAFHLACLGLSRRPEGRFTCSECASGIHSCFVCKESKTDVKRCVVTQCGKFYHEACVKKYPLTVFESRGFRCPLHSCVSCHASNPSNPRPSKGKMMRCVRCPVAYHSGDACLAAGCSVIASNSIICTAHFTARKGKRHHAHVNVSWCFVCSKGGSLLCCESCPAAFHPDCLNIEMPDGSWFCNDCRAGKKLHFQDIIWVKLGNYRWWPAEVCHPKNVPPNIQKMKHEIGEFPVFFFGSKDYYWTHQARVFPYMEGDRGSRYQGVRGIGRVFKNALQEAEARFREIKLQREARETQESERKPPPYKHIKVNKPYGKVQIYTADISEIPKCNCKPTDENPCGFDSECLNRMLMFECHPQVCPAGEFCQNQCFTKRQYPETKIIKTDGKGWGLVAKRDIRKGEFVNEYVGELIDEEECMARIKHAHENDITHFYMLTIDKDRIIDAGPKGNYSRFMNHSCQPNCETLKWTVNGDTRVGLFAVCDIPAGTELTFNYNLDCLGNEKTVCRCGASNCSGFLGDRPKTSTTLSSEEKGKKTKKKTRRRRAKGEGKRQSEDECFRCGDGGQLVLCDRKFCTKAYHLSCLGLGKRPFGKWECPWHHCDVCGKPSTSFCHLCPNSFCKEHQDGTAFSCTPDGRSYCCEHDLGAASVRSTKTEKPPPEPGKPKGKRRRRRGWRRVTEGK

[2] = molecular target: Histone-lysine N-methyltransferase 2B (Homo sapiens, UniProt Q9UMN6); experiment: Inhibition of MLL4 (unknown origin)
Sequence of Histone-lysine N-methyltransferase 2B (Q9UMN6 whole entry): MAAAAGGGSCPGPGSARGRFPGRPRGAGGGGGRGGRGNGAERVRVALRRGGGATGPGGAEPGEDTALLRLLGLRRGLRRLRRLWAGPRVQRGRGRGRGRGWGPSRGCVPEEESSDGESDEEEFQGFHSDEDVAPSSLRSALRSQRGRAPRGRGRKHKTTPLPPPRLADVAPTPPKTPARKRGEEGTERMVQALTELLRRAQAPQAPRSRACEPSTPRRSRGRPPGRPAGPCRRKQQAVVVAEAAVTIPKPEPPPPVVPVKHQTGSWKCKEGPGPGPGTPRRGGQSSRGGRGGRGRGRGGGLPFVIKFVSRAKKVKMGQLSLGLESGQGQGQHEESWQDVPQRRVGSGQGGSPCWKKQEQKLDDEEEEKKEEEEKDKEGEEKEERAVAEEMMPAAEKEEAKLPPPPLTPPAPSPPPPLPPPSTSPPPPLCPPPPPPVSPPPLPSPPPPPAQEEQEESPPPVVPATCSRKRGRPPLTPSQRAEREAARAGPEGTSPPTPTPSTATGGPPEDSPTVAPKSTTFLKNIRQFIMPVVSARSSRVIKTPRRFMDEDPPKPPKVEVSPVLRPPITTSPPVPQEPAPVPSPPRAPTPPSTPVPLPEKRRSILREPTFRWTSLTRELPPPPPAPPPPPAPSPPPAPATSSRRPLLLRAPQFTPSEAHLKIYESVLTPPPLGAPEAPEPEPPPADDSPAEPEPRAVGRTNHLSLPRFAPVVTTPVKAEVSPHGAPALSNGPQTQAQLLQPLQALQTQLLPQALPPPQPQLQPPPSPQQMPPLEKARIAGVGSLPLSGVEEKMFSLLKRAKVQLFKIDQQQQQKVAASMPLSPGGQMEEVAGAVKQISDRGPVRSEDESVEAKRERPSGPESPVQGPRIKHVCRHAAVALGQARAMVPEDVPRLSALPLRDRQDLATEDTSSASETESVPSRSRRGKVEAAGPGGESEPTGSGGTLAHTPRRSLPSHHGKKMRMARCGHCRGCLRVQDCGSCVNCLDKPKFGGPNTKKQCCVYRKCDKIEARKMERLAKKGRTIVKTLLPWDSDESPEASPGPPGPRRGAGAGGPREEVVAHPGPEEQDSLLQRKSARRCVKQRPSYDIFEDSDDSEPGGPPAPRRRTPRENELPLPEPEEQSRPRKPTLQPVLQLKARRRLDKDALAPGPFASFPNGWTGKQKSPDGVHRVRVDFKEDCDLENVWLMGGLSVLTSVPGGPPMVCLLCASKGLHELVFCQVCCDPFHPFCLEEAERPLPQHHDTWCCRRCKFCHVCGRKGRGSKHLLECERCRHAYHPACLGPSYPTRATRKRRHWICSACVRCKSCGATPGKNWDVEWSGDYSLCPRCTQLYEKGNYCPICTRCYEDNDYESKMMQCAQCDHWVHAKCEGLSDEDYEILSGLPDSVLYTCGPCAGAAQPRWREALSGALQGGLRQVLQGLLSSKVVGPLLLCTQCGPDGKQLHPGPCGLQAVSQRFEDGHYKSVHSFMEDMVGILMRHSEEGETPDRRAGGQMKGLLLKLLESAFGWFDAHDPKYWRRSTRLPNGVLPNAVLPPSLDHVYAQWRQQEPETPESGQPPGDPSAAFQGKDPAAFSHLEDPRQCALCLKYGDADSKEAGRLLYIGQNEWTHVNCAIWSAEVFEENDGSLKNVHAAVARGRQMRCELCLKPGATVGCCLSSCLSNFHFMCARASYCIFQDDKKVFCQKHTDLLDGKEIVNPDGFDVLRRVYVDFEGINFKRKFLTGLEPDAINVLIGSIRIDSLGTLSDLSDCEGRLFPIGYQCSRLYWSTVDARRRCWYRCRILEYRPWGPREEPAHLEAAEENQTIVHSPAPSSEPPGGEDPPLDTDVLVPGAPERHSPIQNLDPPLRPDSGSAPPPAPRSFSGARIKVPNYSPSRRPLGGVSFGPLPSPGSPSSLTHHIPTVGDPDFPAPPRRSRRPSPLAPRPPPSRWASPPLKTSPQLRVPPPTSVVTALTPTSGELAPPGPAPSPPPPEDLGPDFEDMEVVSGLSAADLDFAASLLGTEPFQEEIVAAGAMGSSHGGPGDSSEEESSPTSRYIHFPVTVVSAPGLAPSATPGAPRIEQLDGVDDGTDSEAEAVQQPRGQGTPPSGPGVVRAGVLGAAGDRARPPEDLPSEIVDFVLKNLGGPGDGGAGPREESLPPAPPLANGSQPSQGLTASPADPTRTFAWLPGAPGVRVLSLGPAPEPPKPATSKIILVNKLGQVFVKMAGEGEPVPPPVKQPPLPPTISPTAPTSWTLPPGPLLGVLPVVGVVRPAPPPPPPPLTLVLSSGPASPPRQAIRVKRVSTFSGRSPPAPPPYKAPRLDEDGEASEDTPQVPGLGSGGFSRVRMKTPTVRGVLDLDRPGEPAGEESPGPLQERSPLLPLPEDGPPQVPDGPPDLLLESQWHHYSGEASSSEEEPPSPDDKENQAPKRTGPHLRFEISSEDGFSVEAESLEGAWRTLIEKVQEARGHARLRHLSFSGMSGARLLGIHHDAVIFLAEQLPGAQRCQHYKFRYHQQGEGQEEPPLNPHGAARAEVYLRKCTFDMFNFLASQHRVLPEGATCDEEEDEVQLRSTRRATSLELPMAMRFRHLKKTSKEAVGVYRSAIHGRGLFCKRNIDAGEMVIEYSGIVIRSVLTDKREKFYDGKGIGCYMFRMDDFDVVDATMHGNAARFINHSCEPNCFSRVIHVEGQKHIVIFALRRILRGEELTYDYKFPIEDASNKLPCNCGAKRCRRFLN

[3] = Volume of distribution at steady state in mouse at 1 mg/kg, iv measured upto 24 hrs by LC-MS/MS analysis; type: ADME, organism-based; conditions: in vivo, read-out: Vdss
[4] = AUC (0 to last) in mouse at 50 mg/kg, po measured upto 24 hrs by LC-MS/MS analysis; type: ADME, organism-based; conditions: in vivo
[5] = AUC (0 to infinity) in mouse at 50 mg/kg, po measured upto 24 hrs by LC-MS/MS analysis; type: ADME, organism-based; conditions: in vivo
[6] = Oral bioavailability in mouse at 50 mg/kg measured upto 24 hrs by LC-MS/MS analysis; type: ADME, organism-based; conditions: in vivo
[7] = Cmax in mouse at 1 mg/kg, iv measured upto 24 hrs by LC-MS/MS analysis; type: ADME, organism-based; conditions: in vivo
[8] = molecular target: DNA (cytosine-5)-methyltransferase 1 (Homo sapiens, UniProt P26358); experiment: Inhibition of DNMT1 (unknown origin)
[9] = Toxicity in female NU/NU mouse xenografted with human RS4-11 cells assessed as change in body weight at 50 mg/kg, po administered for 21 days; type: organism-based; conditions: in vivo, 504 h, time 21 day
[10] = molecular target: Protein arginine N-methyltransferase 8 (Homo sapiens, UniProt Q9NR22); experiment: Inhibition of PRMT8 (unknown origin)
Sequence of Protein arginine N-methyltransferase 8 (Q9NR22 whole entry): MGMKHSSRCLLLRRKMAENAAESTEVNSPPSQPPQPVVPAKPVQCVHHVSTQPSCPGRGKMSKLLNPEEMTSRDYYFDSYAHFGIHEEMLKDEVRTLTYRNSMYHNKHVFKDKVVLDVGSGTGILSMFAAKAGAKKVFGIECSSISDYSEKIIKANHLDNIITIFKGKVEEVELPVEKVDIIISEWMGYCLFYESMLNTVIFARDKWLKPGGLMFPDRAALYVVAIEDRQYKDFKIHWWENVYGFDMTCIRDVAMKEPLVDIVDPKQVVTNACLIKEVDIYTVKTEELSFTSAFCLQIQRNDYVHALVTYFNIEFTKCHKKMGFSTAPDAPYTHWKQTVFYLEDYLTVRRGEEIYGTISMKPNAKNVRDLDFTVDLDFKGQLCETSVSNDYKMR

[11] = molecular target: T2, Histone-arginine methyltransferase CARM1 (Homo sapiens, UniProt Q86X55); experiment: Inhibition of PRMT4 (unknown origin)
T2 sequence (Q86X55 whole entry): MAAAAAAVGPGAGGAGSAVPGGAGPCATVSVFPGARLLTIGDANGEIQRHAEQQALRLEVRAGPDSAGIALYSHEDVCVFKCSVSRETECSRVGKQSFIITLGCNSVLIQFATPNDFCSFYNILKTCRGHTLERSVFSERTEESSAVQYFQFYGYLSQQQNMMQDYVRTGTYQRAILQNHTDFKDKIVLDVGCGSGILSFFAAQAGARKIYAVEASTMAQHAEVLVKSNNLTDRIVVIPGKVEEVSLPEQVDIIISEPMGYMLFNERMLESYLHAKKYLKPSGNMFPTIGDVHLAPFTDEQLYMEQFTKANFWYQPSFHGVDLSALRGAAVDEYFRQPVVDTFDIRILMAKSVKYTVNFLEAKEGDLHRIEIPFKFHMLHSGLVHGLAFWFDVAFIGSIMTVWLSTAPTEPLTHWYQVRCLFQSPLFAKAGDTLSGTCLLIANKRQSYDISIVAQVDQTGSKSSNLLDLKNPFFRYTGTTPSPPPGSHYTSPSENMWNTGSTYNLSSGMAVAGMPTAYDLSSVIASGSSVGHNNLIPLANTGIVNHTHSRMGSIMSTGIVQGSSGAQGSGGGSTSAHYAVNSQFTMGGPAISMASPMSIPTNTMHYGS

[12] = molecular target: Histone-lysine N-methyltransferase 2A (Homo sapiens, UniProt Q03164); experiment: Inhibition of MLL1 (unknown origin)
[13] = MRT (0 to t) in mouse at 50 mg/kg, po measured upto 24 hrs by LC-MS/MS analysis; type: ADME, organism-based; conditions: in vivo
[14] = Cmax in mouse at 50 mg/kg, po measured upto 24 hrs by LC-MS/MS analysis; type: ADME, organism-based; conditions: in vivo
[15] = AUC (0 to infinity) in mouse at 1 mg/kg, iv measured upto 24 hrs by LC-MS/MS analysis; type: ADME, organism-based; conditions: in vivo
[16] = Half life in mouse at 50 mg/kg, po measured upto 24 hrs by LC-MS/MS analysis; type: ADME, organism-based; conditions: in vivo
[17] = AUC (0 to last) in mouse at 1 mg/kg, iv measured upto 24 hrs by LC-MS/MS analysis; type: ADME, organism-based; conditions: in vivo
[18] = molecular target: Histone-lysine N-methyltransferase EZH2 (Homo sapiens, UniProt Q15910); experiment: Inhibition of EZH2 (unknown origin)
Sequence of Histone-lysine N-methyltransferase EZH2 (Q15910 whole entry): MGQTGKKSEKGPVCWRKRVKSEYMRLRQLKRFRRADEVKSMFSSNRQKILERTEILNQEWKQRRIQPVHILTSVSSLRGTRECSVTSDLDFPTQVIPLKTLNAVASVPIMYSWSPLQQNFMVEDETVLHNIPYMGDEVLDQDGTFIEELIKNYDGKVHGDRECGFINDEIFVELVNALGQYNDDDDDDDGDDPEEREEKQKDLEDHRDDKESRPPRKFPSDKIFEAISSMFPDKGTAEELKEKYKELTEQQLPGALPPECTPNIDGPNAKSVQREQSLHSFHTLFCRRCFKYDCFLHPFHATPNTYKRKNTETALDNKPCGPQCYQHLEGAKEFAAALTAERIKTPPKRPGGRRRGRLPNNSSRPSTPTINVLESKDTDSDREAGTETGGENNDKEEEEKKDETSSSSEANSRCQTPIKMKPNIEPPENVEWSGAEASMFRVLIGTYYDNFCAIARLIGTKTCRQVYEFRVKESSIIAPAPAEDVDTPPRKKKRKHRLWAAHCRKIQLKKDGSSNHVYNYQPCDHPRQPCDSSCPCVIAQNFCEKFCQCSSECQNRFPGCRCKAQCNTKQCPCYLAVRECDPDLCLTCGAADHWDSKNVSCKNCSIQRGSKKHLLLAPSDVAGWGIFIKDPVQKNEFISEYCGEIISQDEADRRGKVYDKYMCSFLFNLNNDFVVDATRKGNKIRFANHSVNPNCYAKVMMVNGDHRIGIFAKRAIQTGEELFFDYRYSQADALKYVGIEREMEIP

[19] = Half life in mouse at 1 mg/kg, iv measured upto 24 hrs by LC-MS/MS analysis; type: ADME, organism-based; conditions: in vivo
[20] = molecular target: T3, Histone-lysine N-methyltransferase EHMT1 (Homo sapiens, UniProt Q9H9B1); experiment: Inhibition of GLP (unknown origin)
T3 sequence (Q9H9B1 whole entry): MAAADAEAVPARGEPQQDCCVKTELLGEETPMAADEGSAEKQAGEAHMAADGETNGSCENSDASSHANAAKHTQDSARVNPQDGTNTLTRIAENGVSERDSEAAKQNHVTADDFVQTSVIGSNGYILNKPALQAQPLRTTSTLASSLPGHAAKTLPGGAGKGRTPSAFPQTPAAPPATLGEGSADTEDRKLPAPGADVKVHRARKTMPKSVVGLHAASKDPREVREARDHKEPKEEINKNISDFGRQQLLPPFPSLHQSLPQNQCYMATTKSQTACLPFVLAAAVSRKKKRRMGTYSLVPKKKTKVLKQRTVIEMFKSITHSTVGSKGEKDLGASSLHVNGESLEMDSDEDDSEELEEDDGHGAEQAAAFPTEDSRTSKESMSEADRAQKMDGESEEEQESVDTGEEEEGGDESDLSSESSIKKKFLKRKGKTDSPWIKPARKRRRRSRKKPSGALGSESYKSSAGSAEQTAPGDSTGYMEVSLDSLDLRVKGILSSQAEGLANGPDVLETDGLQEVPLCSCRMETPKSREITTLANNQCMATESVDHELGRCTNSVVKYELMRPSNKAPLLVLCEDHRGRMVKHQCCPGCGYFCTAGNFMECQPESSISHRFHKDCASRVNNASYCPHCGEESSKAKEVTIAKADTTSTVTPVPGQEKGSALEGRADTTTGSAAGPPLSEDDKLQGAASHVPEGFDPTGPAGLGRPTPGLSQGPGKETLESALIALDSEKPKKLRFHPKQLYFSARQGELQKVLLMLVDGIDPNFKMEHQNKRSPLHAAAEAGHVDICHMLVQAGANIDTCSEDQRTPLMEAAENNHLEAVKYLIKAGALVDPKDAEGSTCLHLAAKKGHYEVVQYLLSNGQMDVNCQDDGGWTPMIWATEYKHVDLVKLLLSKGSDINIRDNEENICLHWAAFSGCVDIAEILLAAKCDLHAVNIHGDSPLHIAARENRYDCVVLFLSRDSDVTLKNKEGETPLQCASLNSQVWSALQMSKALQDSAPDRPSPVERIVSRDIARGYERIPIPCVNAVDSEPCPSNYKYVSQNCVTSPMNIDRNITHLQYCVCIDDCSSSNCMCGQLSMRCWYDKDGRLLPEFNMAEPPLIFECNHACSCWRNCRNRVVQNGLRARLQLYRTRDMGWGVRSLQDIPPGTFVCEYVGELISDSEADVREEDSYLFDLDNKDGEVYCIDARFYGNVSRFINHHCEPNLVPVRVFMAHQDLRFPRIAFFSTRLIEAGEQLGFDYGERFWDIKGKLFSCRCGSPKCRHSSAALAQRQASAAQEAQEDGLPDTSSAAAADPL

[21] = molecular target: Protein arginine N-methyltransferase 5 (Homo sapiens, UniProt O14744); experiment: Inhibition of PRMT5 (unknown origin)
Sequence of Protein arginine N-methyltransferase 5 (O14744 whole entry): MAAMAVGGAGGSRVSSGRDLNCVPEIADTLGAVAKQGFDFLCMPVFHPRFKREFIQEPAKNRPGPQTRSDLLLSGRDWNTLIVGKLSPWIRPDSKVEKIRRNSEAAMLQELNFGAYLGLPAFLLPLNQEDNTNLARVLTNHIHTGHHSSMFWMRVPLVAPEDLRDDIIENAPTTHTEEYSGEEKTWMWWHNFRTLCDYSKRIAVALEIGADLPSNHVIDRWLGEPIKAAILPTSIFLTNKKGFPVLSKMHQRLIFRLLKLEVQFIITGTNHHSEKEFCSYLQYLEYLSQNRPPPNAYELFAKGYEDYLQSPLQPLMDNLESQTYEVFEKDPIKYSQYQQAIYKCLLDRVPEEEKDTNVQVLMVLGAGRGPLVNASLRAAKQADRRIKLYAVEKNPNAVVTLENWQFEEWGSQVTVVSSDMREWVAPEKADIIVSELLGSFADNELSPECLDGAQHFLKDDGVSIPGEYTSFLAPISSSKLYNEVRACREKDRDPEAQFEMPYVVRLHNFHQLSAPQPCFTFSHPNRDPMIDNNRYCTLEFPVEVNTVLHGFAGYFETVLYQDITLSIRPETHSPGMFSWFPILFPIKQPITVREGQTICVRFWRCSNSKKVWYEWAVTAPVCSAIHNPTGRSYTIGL

[22] = MRT (0 to t) in mouse at 1 mg/kg, iv measured upto 24 hrs by LC-MS/MS analysis; type: ADME, organism-based; conditions: in vivo

IC50 [1]: < 0.1 µM
Compound: COc1cc(F)c(-c2cc(Cn3cnc4c(N)ncnc43)c(N3CCC[C@](N)([C@H](O)C(F)F)C3)cn2)cc1F

IC50 [2]: > 10 µM | Vd [3]: 46 L/kg | AUClast [4]: 1694.02 ng·h/mL | AUC [5]: 1760 ng·h/mL | bioavailability [6]: 27.3% | Cmax [7]: 280 nM | IC50 [8]: > 10 µM | IC50 [10]: > 10 µM | IC50 [11]: 8.96 µM | IC50 [12]: > 10 µM | MRT last at 24 h [13]: 5.3 h | Cmax [14]: 1160 nM | AUC [15]: 134 ng·h/mL | half-life [16]: 6.35 h | AUClast [17]: 123.9 ng·h/mL | IC50 [18]: > 10 µM | t1/2 [19]: 8 h | IC50 [20]: > 10 µM | IC50 [21]: > 10 µM | MRT last at 24 h [22]: 6.12 h
Compound: COc1cc2c(NC3CCN(C(C)C)CC3)nc(C#N)nc2cc1OCCCN1CCOCC1
Activity [9]: Non-Toxic
